Data taken from patent publication US11866430B2, “Naphthyridinone compounds useful as T cell activators” (priority 2018, dated 2024).
Like-named read-outs stand apart in the source and are kept apart here.

How the values were obtained:
[1] = test system: Jurkat AP1-luciferase Reporter; assay: DGK AP1-Reporter Assay; assay type: cell-based; details: Homo sapiens, Jurkat
How it was run: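 Jurkat cells carrying a lentiviral AP1-luciferase reporter received 30 nl compound per well for 20 min at 37 °C and 5% CO2. They were then stimulated for 6 h with anti-CD3 solution at 0.4 μg/mL; reference wells received 4 μg/mL and unstimulated wells medium only. Readout was Steady-Glo luciferase luminescence (RLU).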

human DGKζ = human DGKζ (Homo sapiens (Human), UniProt Q13574); assay: DGKζ assay (detergent/lipid micelle substrate); assay type: biochemical
Chain of human DGKζ (Q13574 other isoform, or with tags, fused parts or gaps): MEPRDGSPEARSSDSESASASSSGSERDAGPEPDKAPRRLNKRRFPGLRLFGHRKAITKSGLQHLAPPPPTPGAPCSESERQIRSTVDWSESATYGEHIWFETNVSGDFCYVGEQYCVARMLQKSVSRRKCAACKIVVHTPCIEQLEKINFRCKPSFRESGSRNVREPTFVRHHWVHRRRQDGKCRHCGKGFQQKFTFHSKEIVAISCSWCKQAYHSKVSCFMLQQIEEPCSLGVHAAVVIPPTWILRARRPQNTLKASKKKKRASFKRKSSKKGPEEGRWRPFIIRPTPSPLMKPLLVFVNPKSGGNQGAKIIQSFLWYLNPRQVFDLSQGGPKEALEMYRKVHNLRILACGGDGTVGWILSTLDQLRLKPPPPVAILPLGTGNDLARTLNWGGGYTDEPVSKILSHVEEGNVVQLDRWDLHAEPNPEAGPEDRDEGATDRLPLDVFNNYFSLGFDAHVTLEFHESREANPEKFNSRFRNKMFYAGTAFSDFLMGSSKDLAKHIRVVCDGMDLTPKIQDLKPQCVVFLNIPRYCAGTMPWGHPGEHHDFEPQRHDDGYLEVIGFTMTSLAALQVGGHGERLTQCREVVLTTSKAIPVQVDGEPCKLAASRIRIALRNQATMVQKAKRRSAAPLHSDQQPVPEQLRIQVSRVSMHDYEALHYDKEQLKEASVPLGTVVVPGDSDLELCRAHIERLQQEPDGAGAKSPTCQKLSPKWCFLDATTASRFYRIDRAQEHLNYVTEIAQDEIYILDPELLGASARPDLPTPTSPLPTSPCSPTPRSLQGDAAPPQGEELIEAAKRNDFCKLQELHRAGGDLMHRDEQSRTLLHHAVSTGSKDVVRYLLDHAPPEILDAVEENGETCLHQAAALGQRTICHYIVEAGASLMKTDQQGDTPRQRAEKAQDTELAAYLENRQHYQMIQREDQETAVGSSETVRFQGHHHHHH
How it was run: (§1)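 Full-length human DGKζ (and DGKα), C-terminal His-tagged, Sf9-expressed, with phosphatidylserine/DAG micelles in 50 mM octyl glucoside; buffer 50 mM MOPS pH 7.5, 100 mM NaCl, 10 mM MgCl2, 1 μM CaCl2, 1 mM DTT.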

human DGKα = human DGKα (Homo sapiens (Human), UniProt P23743); assay: biochemical; details: detergent/lipid micelle substrate; read-out: DGKα IC50
Chain of human DGKα (P23743 other isoform, or with tags, fused parts or gaps): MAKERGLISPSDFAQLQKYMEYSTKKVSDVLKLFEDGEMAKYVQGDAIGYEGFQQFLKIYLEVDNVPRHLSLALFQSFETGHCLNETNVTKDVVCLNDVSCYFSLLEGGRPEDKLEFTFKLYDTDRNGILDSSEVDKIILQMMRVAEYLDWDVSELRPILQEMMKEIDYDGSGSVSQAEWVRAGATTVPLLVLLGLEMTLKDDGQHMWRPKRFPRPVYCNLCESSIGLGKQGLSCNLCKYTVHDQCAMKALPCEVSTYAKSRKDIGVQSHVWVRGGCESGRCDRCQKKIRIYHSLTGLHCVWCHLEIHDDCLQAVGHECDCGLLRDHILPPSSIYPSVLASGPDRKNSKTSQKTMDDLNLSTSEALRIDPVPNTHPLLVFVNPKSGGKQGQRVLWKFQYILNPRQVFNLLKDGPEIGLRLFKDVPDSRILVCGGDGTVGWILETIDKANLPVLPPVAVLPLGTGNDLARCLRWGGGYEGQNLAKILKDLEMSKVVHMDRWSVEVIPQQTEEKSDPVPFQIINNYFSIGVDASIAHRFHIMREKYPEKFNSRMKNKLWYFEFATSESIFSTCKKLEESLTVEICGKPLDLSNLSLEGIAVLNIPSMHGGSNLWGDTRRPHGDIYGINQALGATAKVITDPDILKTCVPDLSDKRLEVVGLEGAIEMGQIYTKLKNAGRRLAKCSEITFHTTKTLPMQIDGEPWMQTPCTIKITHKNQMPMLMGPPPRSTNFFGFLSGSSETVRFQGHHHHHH
How it was run: as §1

naïve human CD8 T cells = assay: CellTiter-Glo CD8 T Cell Proliferation Assay; assay type: cell-based; details: Homo sapiens, T-cell, CellTiter-Glo CD8 T cell proliferation, normalized; read-out: CD8 GLO normalized EC50
Procedure: Frozen naïve human CD8 T cells were thawed in RPMI+10% FBS, incubated for 2 h in 37° C., and counted. The 384-well tissue culture plate was coated overnight at 4° C. with 20 μl anti-human CD3 at 0.1 μg/mL in plain RPMI, which was removed off the plate before 20 k/40 μl CD8 T cells with 0.5 μg/mL soluble anti-human CD28 were added to each well. The compounds were echoed to the cell plate immediately after the cells were plated. After 72 h incubation at 37° C. incubator, 10 μl CellTiter-glo reagent (Promega catalog number G7570) was added to each well. The plate was vigorously shaken for 5 mins, incubated at room temperature for another 15 mins and read on Envision for CD8 T cell proliferation. In analysis, 0.1 μg/mL anti-CD3 and 0.5 μg/mL anti-CD28 stimulated CD8 T cell signal was background.

Human venous whole blood = assay: Human Whole Blood IFN-γ Assay; assay type: cell-based; details: Homo sapiens
Procedure: Human venous whole blood (22.5 μL per well), obtained from healthy donors, was pre-treated with compounds for one hour at 37° C. in a humidified 95% air/5% CO2 incubator. The blood was stimulated with 2.5 μL anti-human CD3 and anti-CD28 mAb at a final concentration of 1 μg/mL each for 24 hours at 37° C. IFN-γ in the supernatants was measured using AlphaLISA kit (Cat #AL217).

[2] = test system: OT-1 antigen-specific CD8+ T cells with MC38 tumor cells; assay: Murine Cytotoxic T Lymphocyte Assay (IFN-γ); assay type: cell-based, mouse; details: Mus musculus, MC-38, read-out: msCTL INF-γ IC50, murine CTL IFN-γ (table title reads INF-γ Whole Blood Normalized Agonist EC50)
Source text: An antigen-specific cytolytic T-cell (CTL) assay was developed to evaluate functionally the ability of DGKα and DGKζ inhibitors to enhance effector T cell mediated tumor cell killing activity. CD8+ T-cells isolated from the OT-1 transgenic mouse recognize antigen presenting cells, MC38, that present the ovalbumin derived peptide […]. Recognition of the cognate antigen initiates the cytolytic activity of the OT-1 antigen-specific CD8+ T cells.
Functional CTL cells were generated as follows: OT-1 splenocytes from 8-12 week old mice were isolated and expanded in the presence of the […] peptide at 1 μg/mL and mIL2 at 10 U/mL. After three days, fresh media with mIL2 U/mL was added. On day 5 of the expansion, the CD8+ T cells were isolated and ready for use. Activated CTL cells may be stored frozen for 6 months. […] The cells were washed (3×) with fresh media to remove excess peptide. Finally, CTL cells that were pretreated with DGK inhibitors for 1 hour in a 96-well U bottom plate were combined with the antigen loaded MC38 tumor cells at a 1:10 ratio. The cells were then spun at 700 rpm for 5 min and placed in an incubator overnight at 37° C. After 24 hours, the supernatant was collected for analysis of IFN-γ cytokine levels by AlphaLisa purchased from Perkin Elmer.

[3] = test system: pre-activated CD4 T cells and Raji cells; assay: Raji CD4 T Cell IL2 Assay; assay type: cell-based; details: Homo sapiens, Raji
[4] = read-out: API-Luciferase Reporter IC50, Table 3
[5] = read-out: DGKAP1 Lucif Reporter IC50, Table 4
[6] = detergent/lipid micelle substrate, read-out: DGKζ IC50

SMILES | IC50 [1, 4] [µM] | IC50 [1, 5] [µM] | IC50 (human DGKζ; [6]) [µM] | IC50 (human DGKα) [µM] | EC50 (naïve human CD8 T cells) [µM] | IC50 (human DGKζ; DGKζ IC50, detergent/lipid micelle substrate) [µM] | EC50 (Human venous whole blood; human whole blood, anti-CD3 plus anti-CD28 as baseline, 3 μM Example 40 co-stimulation as 100% activation, read-out: INF-γ Whole Blood Normalized Agonist EC50) [µM] | EC50 (Human venous whole blood; read-out: INF-γ Whole Blood Agonist EC50) [µM] | IC50 [2] [µM] | IC50 [3] [µM]
COc1ccccc1C(c1ccc(F)cc1)N1CCN(c2c(C#N)c(=O)n(CC3CC3)c3ccc(Br)nc23)CC1 (racemic) [Example 158, 6-bromo-1-(cyclopropylmethyl)-4-(4-((4-fluorophenyl)(2-methoxyphenyl)methyl)piperazin-1-yl)-2-oxo-1,2-dihydro-1,5-naphthyridine-3-carbonitrile] | 4.59 | 10 | > 240 | > 240 | 0.92 |  |  |  |  | 
CC(c1ccc(F)cc1)N1CCN(c2c(C#N)c(=O)n(CC3CC3)c3ccc(Br)nc23)CC1 (racemic) [Example 162, 6-bromo-1-(cyclopropylmethyl)-4-(4-(1-(4-fluorophenyl)ethyl)piperazin-1-yl)-2-oxo-1,2-dihydro-1,5-naphthyridine-3-carbonitrile] | 4.81 | 10 |  | 160 | 10 | > 240 |  |  |  | 
COCCn1c(=O)c([N+](=O)[O-])c(N2CCN(C(c3ccc(F)cc3)c3ccccc3O)CC2)c2nc(C#N)ccc21 (stereo not shown) [Example 145, 8-(4-((4-fluorophenyl)(2-hydroxyphenyl)methyl)piperazin-1-yl)-5-(2-methoxyethyl)-7-nitro-6-oxo-5,6-dihydro-1,5-naphthyridine-2-carbonitrile] | 0.57 |  | 2.3 | 30 |  |  | 1.87 | 1.33 | 0.46 | 
COc1ccc2c(c1)C(N1CCN(c3c(C#N)c(=O)n(CC#N)c4ccc(Br)nc34)CC1)CC2 (stereo not shown) [Example 156, 6-bromo-1-(cyanomethyl)-4-(4-(6-methoxy-2,3-dihydro-1H-inden-1-yl)piperazin-1-yl)-2-oxo-1,2-dihydro-1,5-naphthyridine-3-carbonitrile] | 10 | 10 | 140 | 170 | 0.14 |  |  |  |  | > 100
